Laboratory results: PMC2248166, “Quantitative peptide binding motifs for 19 human and mouse MHC class I molecules derived using positional scanning combinatorial peptide libraries” (Immunome Research, 2008)

Experiments:
[1] = target: H-2 K^k (Mus musculus, UniProt P04223); assay type: binding
[2] = target: H-2 D^d (Mus musculus, UniProt P01900); assay type: binding
[3] = target: HLA A*3001 (Homo sapiens, UniProt P04439, D140H/D185E/E176W/F33S/G80R/H175R/K168Q/R138E/R41S); experiment: biochemical; assay type: binding
[4] = target: HLA B*0801 (Homo sapiens, UniProt P01889, A93T/A95T/D138N/E176V/E187T/K202T/Q94N/R180D/S35A/V36M/Y33D/Y91F); experiment: biochemical; assay type: binding
[5] = target: HLA B*5401 (Homo sapiens, UniProt P01889, A329T/C349S/D138N/D201E/E176V/E187T/E204Q/E69G/I76V/K202T/L119W/R155S/R180L/S121T/S35A/S48A/V127L/V306I/V36M/Y140L); assay type: binding
[6] = target: HLA B*0702 (Homo sapiens, UniProt P01889); assay type: binding; conditions: positional scanning combinatorial 9-mer library; normalized to 1.0 for the best residue at each position
[7] = target: HLA A*0201 (Homo sapiens, UniProt P04439, D140Y/D185E/D98H/E176V/E277Q/G131W/G231S/I119V/I121R/I166T/I218V/L300P/L318F/N151K/N90K/P208A/P217A/Q86G/Q94H/R138H/R169H/T345S); conditions: positional scanning combinatorial 9-mer library; normalized to 1.0 for the best residue at each position
[8] = target: HLA B*5801 (Homo sapiens, UniProt P01889, A329T/C349S/D201E/D98Y/E176V/E187L/E204Q/E69T/G107R/I218V/I90N/K202T/L105A/L119I/N104I/N87E/Q89R/Q94S/R106L/R155S/R180L/R86G/S101N/S121R/S35A/S48A/T118I/V127L/V306I/V36M/Y140S/Y91M); assay type: binding
[9] = target: HLA A*3201 (Homo sapiens, UniProt P04439, A270S/D101S/D185E/E176V/E277Q/F133L/G103R/G107R/G231S/H175R/I121M/I218V/I322F/K168Q/L105A/L300P/L318F/M331R/P208A/P217A/Q94H/R106L/R138Q/S129P/T104I/T323A/T345S/V100E/V321M/V358M); experiment: biochemical; assay type: binding
[10] = target: HLA B*2705 (Homo sapiens, UniProt P01889, D138H/D201E/E176V/E204Q/G107R/H137Y/K202T/N104T/N87E/Q56L/Q94K/R106L/R155S/R180L/S101D/S121N/S48T/Y140D/Y33H/Y91C); assay type: binding; conditions: positional scanning combinatorial 9-mer library; normalized to 1.0 for the best residue at each position
[11] = target: HLA B*1503 (Homo sapiens, UniProt P01889, A329T/A93T/A95T/C349S/D201E/D98Y/E187L/E204Q/K202T/N87E/Q94N/R155S/R180L/S121R/S35A/V306I/V36M/Y140S/Y91S); experiment: biochemical; assay type: binding
[12] = target: H-2 D^b (Mus musculus, UniProt P01899); assay type: binding
Chain of H-2 D^b (P01887 21-119): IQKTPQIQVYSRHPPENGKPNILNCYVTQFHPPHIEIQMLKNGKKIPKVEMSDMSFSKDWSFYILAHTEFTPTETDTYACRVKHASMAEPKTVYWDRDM
Chain of H-2 D^b (P01899 25-362): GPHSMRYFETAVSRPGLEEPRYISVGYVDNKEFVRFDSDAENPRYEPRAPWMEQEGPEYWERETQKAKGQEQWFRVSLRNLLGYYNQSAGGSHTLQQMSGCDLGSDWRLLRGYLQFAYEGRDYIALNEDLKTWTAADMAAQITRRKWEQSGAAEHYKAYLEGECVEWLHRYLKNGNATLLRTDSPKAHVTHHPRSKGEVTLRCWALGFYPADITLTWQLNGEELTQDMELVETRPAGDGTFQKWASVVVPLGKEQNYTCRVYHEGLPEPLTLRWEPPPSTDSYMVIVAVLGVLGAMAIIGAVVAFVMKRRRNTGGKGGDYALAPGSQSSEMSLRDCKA

[13] = target: HLA A*6802 (Homo sapiens, UniProt P04439, A269V/D140Y/D185E/E176V/E277Q/E87N/F33Y/G231S/I121R/I166T/I218V/L180W/L300P/L318F/N151K/P208A/P217A/Q86R/R138H/R169H/S129P/T345S/V36M); assay type: binding
[14] = target: HLA B*1501 (Homo sapiens, UniProt P01889, A329T/A93T/A95T/C349S/D201E/D98Y/E187L/E204Q/E69M/E70A/K202T/N87E/Q94N/R155S/R180W/S121R/S35A/S48A/V306I/V36M/Y140S/Y91S); experiment: biochemical; assay type: binding
[15] = target: HLA B*3501 (Homo sapiens, UniProt P01889, A329T/A93T/A95T/C349S/D201E/D98Y/E176V/E187L/E204Q/E69T/I218V/K202T/L119I/Q94N/R155S/R180L/S121R/S35A/S48A/T118I/V127L/V306I/V36M/Y140S/Y91F); assay type: binding
[16] = target: HLA B*5101 (Homo sapiens, UniProt P01889, A329T/A93T/A95T/C349S/D138N/D201E/D98Y/E187L/E204Q/E69T/G107R/I218V/K202T/L105A/L119W/N104I/Q94N/R106L/R155S/R180L/S101N/S121T/S35A/S48A/V306I/V36M/Y195H/Y91F); assay type: binding
[17] = target: HLA B*5301 (Homo sapiens, UniProt P01889, A329T/A93T/A95T/C349S/D201E/D98Y/E176V/E187L/E204Q/E69T/G107R/I218V/K202T/L105A/L119I/N104I/Q94N/R106L/R155S/R180L/S101N/S121R/S35A/S48A/T118I/V127L/V306I/V36M/Y140S/Y91F); assay type: binding
[18] = target: HLA B*5802 (Homo sapiens, UniProt P01889, A329T/C349S/D201E/D98Y/E176V/E187L/E204Q/E69T/G107R/I218V/I90N/K202T/L105A/N104I/N87E/Q89R/Q94S/R106L/R155S/R180L/R86G/S101N/S121W/S35A/S48A/V127L/V306I/V36M/Y140S/Y91M); assay type: binding

Chain of H-2 K^k (P01887 21-119): as the sequence (P01887 21-119) above
Chain of H-2 K^k (P04223 22-369): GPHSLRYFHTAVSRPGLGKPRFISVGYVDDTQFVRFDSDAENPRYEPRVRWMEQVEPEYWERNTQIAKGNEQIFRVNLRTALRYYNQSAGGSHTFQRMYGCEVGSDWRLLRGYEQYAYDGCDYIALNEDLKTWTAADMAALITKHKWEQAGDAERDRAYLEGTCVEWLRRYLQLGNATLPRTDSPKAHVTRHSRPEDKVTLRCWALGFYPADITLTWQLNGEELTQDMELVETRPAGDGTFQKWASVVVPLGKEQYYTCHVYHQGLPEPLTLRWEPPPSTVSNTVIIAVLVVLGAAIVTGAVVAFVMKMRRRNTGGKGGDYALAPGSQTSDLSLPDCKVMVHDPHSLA
Chain of H-2 D^d (P01900 whole entry, looked up): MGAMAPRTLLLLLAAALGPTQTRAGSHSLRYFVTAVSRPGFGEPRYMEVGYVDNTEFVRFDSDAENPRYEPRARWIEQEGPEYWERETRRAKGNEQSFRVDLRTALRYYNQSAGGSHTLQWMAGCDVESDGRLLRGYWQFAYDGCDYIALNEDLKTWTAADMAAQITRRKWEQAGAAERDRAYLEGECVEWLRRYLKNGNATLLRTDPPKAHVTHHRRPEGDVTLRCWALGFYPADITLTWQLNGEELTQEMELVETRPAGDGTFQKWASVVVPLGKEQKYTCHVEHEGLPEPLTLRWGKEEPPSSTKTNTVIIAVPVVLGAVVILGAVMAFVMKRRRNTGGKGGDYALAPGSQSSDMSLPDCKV

Sequence | Normalized average relative binding affinity (ARB), H-2 Kk [1] | Normalized average relative binding affinity (ARB), H-2 Dd [2] | Normalized average relative binding affinity (ARB), HLA A*3001 [3] | Normalized average relative binding affinity (ARB), HLA B*0801 [4] | Normalized average relative binding affinity (ARB), HLA B*5401 [5] | Normalized average relative binding affinity (ARB), HLA B*0702 [6] | Normalized average relative binding affinity (ARB), HLA A*0201 [7] | Normalized average relative binding affinity (ARB), HLA B*5801 [8] | Normalized average relative binding affinity (ARB), HLA A*3201 [9] | Normalized average relative binding affinity (ARB), HLA B*2705 [10] | Normalized average relative binding affinity (ARB), HLA B*1503 [11] | Normalized average relative binding affinity (ARB), H-2 Db [12] | Normalized average relative binding affinity (ARB), HLA A*6802 [13] | Normalized average relative binding affinity (ARB), HLA B*1501 [14] | Normalized average relative binding affinity (ARB), HLA B*3501 [15] | Normalized average relative binding affinity (ARB), HLA B*5101 [16] | Normalized average relative binding affinity (ARB), HLA B*5301 [17] | Normalized average relative binding affinity (ARB), HLA B*5802 [18]
XVXXXXXXX [3064.0038] | 0.0062 | 0.016 | 1.0 | 0.17 | 0.024 | 0.086 | 0.098 | 0.14 | 0.23 | 0.0016 | 0.017 | 0.20 | 1.0 | 0.39 | 0.062 | 0.10 | 0.10 | 0.12
XCXXXXXXX [3064.0022] | 0.010 | 0.013 | 0.15 | 0.028 | 0.0051 | 0.0028 | 0.0016 | 0.013 | 0.028 | 0.0016 | 0.0028 | 0.22 | 0.0076 | 0.027 | 0.067 | 0.079 | 0.019 | 0.051
XLXXXXXXX [3064.0030] | 0.062 | 0.035 | 0.16 | 0.72 | 0.0037 | 0.016 | 1.0 | 0.043 | 0.29 | 0.0053 | 0.18 | 0.18 | 0.097 | 0.52 | 0.035 | 0.022 | 0.035 | 0.13
XXRXXXXXX [3064.0055] | 0.19 | 0.0031 | 1.0 | 1.0 | 0.062 | 0.63 | 0.019 | 0.058 | 0.19 | 0.16 | 0.25 | 0.023 | 0.018 | 0.69 | 0.074 | 0.33 | 0.029 | 0.38
